Columns and labels:
[1] = tested on: Rabbits with normal intraocular pressure; assay: Influence on intraocular pressure in rabbits with normal intraocular pressure; type: in vivo; conditions: rabbit, 50 μL of 0.1 w/v % solution instilled into one eye, three hours after administration, saline eye minus test eye, average of three
Procedure: Rabbits (strain: Std:NZW, sex: male) with normal intraocular pressure were acclimated to breeding environment for more than three weeks, and subjected to test (three rabbits per one group).
A test compound was weighed, and a required amount of a 10 mmol/L or 20 mmol/L tris hydrochloric acid buffer solution was added thereto with a micropipette and dissolved therein. If necessary, a 1 mol/L hydrochloric acid or a 1 mol/L sodium hydroxide solution was used to prepare a physiological pH, to obtain the test compound solution (0.1 w/v % solution).
50 μL of the test compound solution was instilled into one eye, and 50 μL of a saline solution was instilled into the other eye as a negative control. Three hours after administration, intraocular pressure was measured. In addition, the measurement of intraocular pressure was repeated in the manner of right eye→left eye→right eye→left eye→ . . . , and continued until the changes of three consecutive intraocular pressures of the right eye and the left eye were within 1 mmHg, respectively. The average of three intraocular pressures at that time was recorded as the intraocular pressure at that time. In addition, ΔIOP (mmHg) was calculated by subtracting the intraocular pressure of the eye for instillation of the test compound solution from the intraocular pressure of the eye for instillation of the saline solution.
In addition, the data represents an average of three tests per one group.

[2] = Determination of Log D value (flask shaking method); type: physicochemical; conditions: pH 6.8; partition between n-octanol and second solution for the disintegration test (16th revised Japanese Pharmacopoeia), room temperature
Procedure: More specifically, the Log D is more preferably 1.6 or more and 2.3 or less, still more preferably 1.8 or more and 2.2 or less, and particularly preferably 1.8 or more and 2.1 or less. Here, the Log D value in the present invention is a compound partition coefficient between n-octanol and a second solution of a disintegration test of the 16th revised Japanese Pharmacopoeia.
The Log D value was determined using a flask shaking method, where a test compound partition coefficient between n-octanol and the second solution for the disintegration test defined in the 16th revised Japanese Pharmacopoeia was calculated. Specifically, in a microtube containing 2 mg of the test compound, n-octanol (0.25 mL) and the second solution for the disintegration test (0.25 mL) were mixed. The tube was shaken in a multi shaker at room temperature for 60 minutes, and allowed to stand until the two phases were completely separated. In the microtube, 10 μL of an n-octanol phase was diluted with 190 μL of 85% methanol and mixed, thereby obtaining an organic phase test solution. 100 μL of the second solution phase for the disintegration test was diluted with 100 μL of 50% methanol, and mixed, thereby obtaining an aqueous phase test solution. The organic phase test solution and the aqueous phase test solution were filtered, respectively, and the concentration of the test compound in these test solutions were measured, using high performance liquid chromatography. Then, from the measured concentration and dilution rate, the Log D was calculated.
That is, the Log D of the present specification is represented by the following equation: Log D=Log10([concentration of test compound in organic phase test solution]/[concentration of test compound in aqueous phase test solution])+1 [Equation 1]
The second solution for the disintegration test herein refers to, as defined in the 16th revised Japanese Pharmacopoeia, a liquid obtained by adding to 250 mL of a 0.2 mol/L potassium dihydrogenphosphate reagent, 118 mL of a 0.2 mol/L sodium hydroxide reagent, and water for adjusting to 1000 mL volume.

| Compound | logD [2] | ΔIOP [1] [mmHg] |
| --- | --- | --- |
| N#Cc1cccc([C@H](CN(CCCCC(=O)O)Cc2ccc(C(=O)O)cc2)OCc2ccc(Oc3ccccc3)cc2)c1 [Comparative Compound 3, reference compound] | 1.32 | 1.1 |
| O=C(O)CCCCN(Cc1ccc(C(=O)O)cc1)C[C@H](OCc1ccc(CCc2ccc(Cl)cc2)cc1)c1ccccc1 [Compound No. 6, (−)-4-([N-(4-carboxybutyl)-N-[(2R)-2-[4-[2-(4-chlorophenyl)ethyl]benzyloxy]-2-phenylethyl]amino]methyl)benzoic acid] | 2.02 | 3.4 |
| CC(C)(C)c1cc(CO[C@@H](CN(CCCCC(=O)O)Cc2ccc(C(=O)O)cc2)c2ccccc2)cc(C(C)(C)C)c1 [Comparative Compound 4, reference compound] | 2.78 | 0.2 |
| O=C(O)CCCCN(Cc1ccc(C(=O)O)cc1)C[C@H](OCc1ccc(CCc2ccccc2)cc1)c1ccccc1 [Compound No. 14, (−)-4-([N-(4-carboxybutyl)-N-[(2R)-2-[4-(2-phenylethyl)benzyloxy]-2-phenylethyl]amino]methyl)benzoic acid] | 2.04 | 5.0 |

Now from value to compound, other results behind:

| logD [2] | Compound | ΔIOP [1] [mmHg] |
| --- | --- | --- |
| 1.5 | O=C(O)CCCCN(CCc1ccccc1OCc1ccc(CCc2ccccc2)cc1)Cc1ccc(C(=O)O)cc1 [Comparative Compound 1, reference compound] | 0.3 |
| 2.59 | O=C(O)CCCCN(CCc1ccccc1OCc1ccc(CCc2ccccc2)cc1)C1COc2cc(C(=O)O)ccc21 (centres unmarked) [Comparative Compound 2, reference compound] | 1.5 |
| 1.87 | O=C(O)CCCCN(CCc1ccccc1OCc1cccc2c1CCCC2)[C@H]1CCCc2cc(C(=O)O)ccc21 [Compound No. 8, (+)-(5S)-5-[N-(4-carboxybutyl)-N-[2-[2-(5,6,7,8-tetrahydronaphthalene-1-ylmethoxy)phenyl]ethyl]amino]-5,6,7,8-tetrahydronaphthalene-2-carboxylic acid] | 5.2 |

From patent publication US10682323B2, “Therapeutic agent for glaucoma” (TOA EIYO LTD., priority 2016, dated 2020)
